Where “and” joins values, the source holds several entries; their conditions need not be identical. Identical values can stand only once.
Columns and labels:
Conditions in all cases: incubation time: 72 h
MCF-10A = assay: drug sensitivity score (DSS), CellTiter-Glo (DSS (AUC-based score)); higher = stronger drug effect (viability inhibition or cytotoxicity); extreme values may be limits of the assay
How it was run: (§1)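 In 384-well plates, compound was laid out at 5 concentrations in 10-fold steps over a 10,000-fold range specific to each compound, and breast cancer cell lines were seeded on top in 20 µl suspension for a 72 h incubation. CellTox Green fluorescence and then CellTiter-Glo luminescence were read, and each plate was normalised to 0.1 % DMSO and a positive kill control. The drug sensitivity score was calculated from the area under the fitted dose-response curve.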

Hs578T [1] = assay: as above
How it was run: as §1

BT-549 = assay: as above
How it was run: as §1

HCC1599 = assay: as above
How it was run: as §1

HCC1937 [2] = assay: as above
How it was run: as §1

BT-474 = assay: as above
How it was run: as §1

CAL-51 [3] = assay: as above
How it was run: as §1

HCC1143 = assay: as above
How it was run: as §1

SK-BR-3 = assay: as above
How it was run: as §1

MDA-MB-231 [4] = assay: as above
How it was run: as §1

CAL-85-1 [5] = assay: as above
How it was run: as §1

CAL-148 = assay: as above
How it was run: as §1

MFM-223 [6] = assay: as above
How it was run: as §1

MDA-MB-453 = assay: as above
How it was run: as §1

CAL-120 [7] = assay: as above
How it was run: as §1

MDA-MB-436 = assay: as above
How it was run: as §1

DU-4475 = assay: normalised viability (% of control), CellTiter-Blue; higher = more viable cells (about 100 = DMSO control)
How it was run: (§2)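 Each entry is normalised viability at a single listed concentration within a series. It comes from breast cancer cell lines incubated 72 h with compound in 384-well plates, then measured with CellTiter-Blue fluorescence at 560/590 nm. Every plate was normalised between vehicle (100) and a positive kill control (0).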

Hs578T [8] = assay: as above
How it was run: as §2

HCC1937 [9] = assay: as above
How it was run: as §2

CAL-51 [10] = assay: as above
How it was run: as §2

MDA-MB-468 = assay: as above
How it was run: as §2

MDA-MB-231 [11] = assay: as above
How it was run: as §2

CAL-85-1 [12] = assay: as above
How it was run: as §2

MFM-223 [13] = assay: as above
How it was run: as §2

CAL-120 [14] = assay: as above
How it was run: as §2

CN(Cc1cnc2nc(N)nc(N)c2n1)c1ccc(C(=O)N[C@@H](CCC(=O)O)C(=O)O)cc1 [Methotrexate]
Conditions	drug sensitivity score
BT-474	7.54
BT-549	0
CAL-51 [3]	16.2
CAL-85-1 [5]	9.24
CAL-120 [7]	17.3
CAL-148	0
HCC1143	0
HCC1599	1.47
HCC1937 [2]	30.2
Hs578T [1]	2.72
MCF-10A	0
MDA-MB-231 [4]	7.21
MDA-MB-436	3.7
MDA-MB-453	0
MFM-223 [6]	0
SK-BR-3	0

normalised viability [%]
Conditions	CAL-51 [10]	CAL-85-1 [12]	CAL-120 [14]	DU-4475	HCC1937 [9]	Hs578T [8]	MDA-MB-231 [11]	MDA-MB-468	MFM-223 [13]
3 nM	108	98.5	–	102	–	–	–	–	–
10 nM	–	–	85.2	–	86.5	106	94.2	90.7	108
30 nM	101	84	–	99.3	–	–	–	–	–
100 nM	62.6	78	–	101	–	–	–	–	–
1000 nM	–	–	46.9	–	72.1	86.5	94.7	41.5	107
10000 nM	–	–	55	–	76.1	79.4	94.1	42.7	100

Cc1cc(Nc2nc(N[C@@H](C)c3ncc(F)cn3)ncc2Cl)[nH]n1 [AZD1480]
Conditions	drug sensitivity score
BT-474	0
BT-549	0
CAL-51 [3]	0
CAL-85-1 [5]	0
CAL-120 [7]	0
CAL-148	0
HCC1143	0
HCC1599	0
HCC1937 [2]	0
Hs578T [1]	0
MCF-10A	0
MDA-MB-231 [4]	0
MDA-MB-436	0
MDA-MB-453	0
MFM-223 [6]	5.17
SK-BR-3	0

normalised viability [%]
Conditions	CAL-51 [10]	CAL-85-1 [12]	CAL-120 [14]	DU-4475	HCC1937 [9]	Hs578T [8]	MDA-MB-231 [11]	MDA-MB-468	MFM-223 [13]
0.3 nM	115	102	–	102	–	–	–	–	–
1 nM	–	–	87.9	–	112	145	107	109	92.1
3 nM	114	91.4	–	104	–	–	–	–	–
10 nM	110	96.4	–	95.8	–	–	–	–	–
100 nM	–	–	90.6	–	83.9	102	95.5	103	60.8
1000 nM	–	–	72.1	–	83.4	80.4	85.7	84.9	46.2

CCN(CC)CCCC(C)Nc1ccnc2cc(Cl)ccc12 (configuration not stated) [Chloroquine]
Conditions	drug sensitivity score
BT-474	9.59
BT-549	9.55
CAL-51 [3]	13.3
CAL-85-1 [5]	11
CAL-120 [7]	11.1
CAL-148	10.1
HCC1143	4.28
HCC1599	9.72
HCC1937 [2]	9.1
Hs578T [1]	5.84
MCF-10A	8.64
MDA-MB-231 [4]	9.09
MDA-MB-436	9.03
MDA-MB-453	15.7
MFM-223 [6]	9.76
SK-BR-3	14.7

normalised viability [%]
Conditions	CAL-51 [10]	CAL-85-1 [12]	CAL-120 [14]	DU-4475	HCC1937 [9]	Hs578T [8]	MDA-MB-231 [11]	MDA-MB-468	MFM-223 [13]
0.297 nM	94	95.5	–	106	–	–	–	–	–
0.99 nM	–	–	96.1	–	100	92	113	107	101
2.97 nM	92.9	90	–	89.8	–	–	–	–	–
9.9 nM	91.7	97	–	112	–	–	–	–	–
99 nM	–	–	104	–	111	106	129	115	106
990 nM	–	–	105	–	100	93.1	98.7	98.4	94.2

Cc1cn(-c2cc(NC(=O)c3ccc(C)c(Nc4nccc(-c5cccnc5)n4)c3)cc(C(F)(F)F)c2)cn1 [Nilotinib]
Conditions	drug sensitivity score
BT-474	0
BT-549	1.04
CAL-51 [3]	6.22
CAL-85-1 [5]	0
CAL-120 [7]	0
CAL-148	0
HCC1143	0
HCC1599	0
HCC1937 [2]	0
Hs578T [1]	0
MCF-10A	0
MDA-MB-231 [4]	0
MDA-MB-436	0
MDA-MB-453	0
MFM-223 [6]	0
SK-BR-3	0

normalised viability
Conditions	CAL-51 [10]	CAL-85-1 [12]	CAL-120 [14]	DU-4475	HCC1937 [9]	Hs578T [8]	MDA-MB-231 [11]	MDA-MB-468	MFM-223 [13]
3 nM	107% and 112%	87% and 87.5%	–	105% and 98.1%	–	–	–	–	–
10 nM	–	–	78% and 85.4%	–	86% and 80.5%	97.3% and 112%	87.6% and 94.3%	100% and 102%	92.3% and 91.1%
30 nM	108% and 106%	81.8% and 80.2%	–	96.6% and 119%	–	–	–	–	–
100 nM	101% and 111%	85.7% and 90.7%	–	97.6% and 99.3%	–	–	–	–	–
1000 nM	–	–	82.5% and 88%	–	69.4%	89% and 84.7%	71.3% and 75.2%	108% and 106%	98.9% and 91%
10000 nM	–	–	90.2% and 92.4%	–	71.9% and 73.7%	106% and 91%	57.3% and 45.2%	97.5% and 108%	91.7% and 89.4%
